US12275745B2, “Therapeutic compounds and methods of use” (Genentech, Inc., priority 2021, dated 2025)

How the values were obtained:
[1] = molecular target: TEAD2 (Homo sapiens, UniProt Q15562); experiment: biochemical;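 also: TR-FRET competition assay with His-tagged TEAD protein and a biotinylated lipid pocket probe, where probe displacement by compound lowers the signal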
Protocol: His-tagged TEAD proteins are pre-incubated with TEAD project compounds for 30 minutes or 4 hours at room temperature. Biotinylated lipid pocket probes are then added to the TEAD/Compound mixture and incubated for 60 minutes at room temperature. The lipid pocket probe competes with the test compound for the TEAD lipid pocket until equilibrium is reached. After 60 minutes, Europium labelled anti-His (Perkin Elmer #AD0110) and XL665 labelled streptavidin (CIS Bio 610SAXAC) are added to the TEAD/test compound/lipid pocket mixture and incubated for 30 minutes or 4 hours. TR-FRET values are then measured using an EnVision multi-label plate reader (Perkin Elmer Cat #2104-001 0A.) If the lipid pocket probe binds to TEAD as expected, a TR-FRET signal results from the proximity of anti-His Eu and XL665. If a TEAD lipid pocket binder such as binds and displaces the lipid pocket probe, the disruption of the TEAD:probe interaction results in a decrease in TR-FRET signal. The potency of compounds as TEAD lipid pocket binders is determined by IC50 value generated using a non-linear 4 parameter curve fit.

[2] = molecular target: TEAD3 (Homo sapiens, UniProt Q99594); experiment: TR-FRET (Lipid HTRF) TEAD lipid pocket probe displacement assay, TEAD3; assay type: binding; details: His-tagged TEAD3, biotinylated lipid pocket probe, 4 hours
[3] = molecular target: TEAD4 (Homo sapiens, UniProt Q15561); experiment: TR-FRET (Lipid HTRF) TEAD lipid pocket probe displacement assay, TEAD4; assay type: binding; details: His-tagged TEAD4, biotinylated lipid pocket probe, 4 hours
[4] = molecular target: TEAD1 (Homo sapiens, UniProt P28347); experiment: TR-FRET (Lipid HTRF) TEAD lipid pocket probe displacement assay, TEAD1; assay type: binding; details: His-tagged TEAD1, biotinylated lipid pocket probe, 4 hours
Sequence of TEAD1 (P28347 whole entry, species assumed): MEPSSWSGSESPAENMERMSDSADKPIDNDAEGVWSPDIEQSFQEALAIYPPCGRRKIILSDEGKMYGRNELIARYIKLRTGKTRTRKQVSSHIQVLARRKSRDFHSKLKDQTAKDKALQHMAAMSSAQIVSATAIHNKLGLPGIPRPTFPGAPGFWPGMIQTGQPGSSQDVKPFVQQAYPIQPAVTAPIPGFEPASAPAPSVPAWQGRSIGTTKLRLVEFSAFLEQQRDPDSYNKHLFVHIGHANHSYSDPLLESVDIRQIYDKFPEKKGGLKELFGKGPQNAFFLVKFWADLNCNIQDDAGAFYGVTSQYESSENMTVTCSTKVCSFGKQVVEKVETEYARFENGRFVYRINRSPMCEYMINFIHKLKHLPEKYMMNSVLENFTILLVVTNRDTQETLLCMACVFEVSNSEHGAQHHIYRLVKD

Sequence of TEAD4 (Q15561 whole entry, species assumed): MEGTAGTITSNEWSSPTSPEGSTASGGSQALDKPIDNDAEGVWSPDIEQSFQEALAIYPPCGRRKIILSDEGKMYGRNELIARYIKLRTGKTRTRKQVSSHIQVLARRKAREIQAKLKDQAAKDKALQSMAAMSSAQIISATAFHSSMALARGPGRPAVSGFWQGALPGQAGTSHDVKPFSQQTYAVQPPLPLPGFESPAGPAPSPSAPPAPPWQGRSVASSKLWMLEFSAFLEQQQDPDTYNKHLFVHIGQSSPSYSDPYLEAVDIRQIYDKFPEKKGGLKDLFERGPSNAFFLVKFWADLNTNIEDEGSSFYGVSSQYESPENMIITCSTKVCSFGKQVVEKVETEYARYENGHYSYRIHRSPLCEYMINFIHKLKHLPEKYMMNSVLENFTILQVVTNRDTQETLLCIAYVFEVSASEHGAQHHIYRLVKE
Sequence of TEAD3 (Q99594 whole entry, species assumed): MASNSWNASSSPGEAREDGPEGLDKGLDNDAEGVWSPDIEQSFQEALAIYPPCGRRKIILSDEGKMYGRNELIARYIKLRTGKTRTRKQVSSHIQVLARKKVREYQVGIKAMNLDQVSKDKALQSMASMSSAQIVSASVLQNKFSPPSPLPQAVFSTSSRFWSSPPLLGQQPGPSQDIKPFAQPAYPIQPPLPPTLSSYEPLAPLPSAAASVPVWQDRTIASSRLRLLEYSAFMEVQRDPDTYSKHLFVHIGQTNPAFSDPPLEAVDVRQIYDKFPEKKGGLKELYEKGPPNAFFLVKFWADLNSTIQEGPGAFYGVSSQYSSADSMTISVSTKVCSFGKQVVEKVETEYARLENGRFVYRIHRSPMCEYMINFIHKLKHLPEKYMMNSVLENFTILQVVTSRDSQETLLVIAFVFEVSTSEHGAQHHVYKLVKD
Sequence of TEAD2 (Q15562 whole entry, species assumed): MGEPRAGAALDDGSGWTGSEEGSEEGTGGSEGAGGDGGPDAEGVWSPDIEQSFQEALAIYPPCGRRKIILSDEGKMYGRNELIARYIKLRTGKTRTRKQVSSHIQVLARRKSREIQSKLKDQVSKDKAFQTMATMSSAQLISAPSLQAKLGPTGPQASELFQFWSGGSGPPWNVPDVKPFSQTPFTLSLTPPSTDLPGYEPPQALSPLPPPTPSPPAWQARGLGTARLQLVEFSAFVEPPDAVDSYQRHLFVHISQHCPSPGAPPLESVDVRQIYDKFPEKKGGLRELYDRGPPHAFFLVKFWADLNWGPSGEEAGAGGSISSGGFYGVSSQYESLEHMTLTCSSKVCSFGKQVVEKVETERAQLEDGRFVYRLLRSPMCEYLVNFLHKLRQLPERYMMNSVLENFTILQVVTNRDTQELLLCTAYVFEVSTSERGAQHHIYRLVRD

SMILES	IC50 [1] [nM]	IC50 [2] [nM]	IC50 [3] [nM]	IC50 [4] [nM]
C=C(F)C(=O)NCc1cc(-c2ccc(OC(F)(F)F)cc2)c2nccnc2c1[C@@H](O)CO [Compound 80, (R)-N-((5-(1,2-Dihydroxyethyl)-8-(4-(trifluoromethoxy)phenyl)quinoxalin-6-yl)methyl)-2-fluoroacrylamide]	110	840	740	130
C=CC(=O)NCc1cc(-c2ccc(OC(F)(F)F)cc2)c2nccnc2c1C#N [Compound 85, N-((5-Cyano-8-(4-(trifluoromethoxy)phenyl)quinoxalin-6-yl)methyl)acrylamide]	121	127	88.7	78
C=CC(=O)N(C)Cc1cc(-c2ccc(OC(F)(F)F)cc2)c2c(c1CO)CCO2 [Compound 88, N-((4-(Hydroxymethyl)-7-(4-(trifluoromethoxy)phenyl)-2,3-dihydrobenzofuran-5-yl)methyl)-N-methylacrylamide]	6.7	7.4	3.1	4.4
C#Cc1ccc(-c2cc(CN(C)C(=O)C=C)c(CO)c3c2OCC3)cc1 [Compound 94, N-((7-(4-Ethynylphenyl)-4-(hydroxymethyl)-2,3-dihydrobenzofuran-5-yl)methyl)-N-methylacrylamide]	67	56	13	44
C=CC(=O)N(CC)Cc1nc(-c2ccc(OC(F)(F)F)cc2)c2ncsc2n1 [Compound 98, N-Ethyl-N-((7-(4-(trifluoromethoxy)phenyl)thiazolo[5,4-d]pyrimidin-5-yl)methyl)acrylamide]	140	680	48	710
C=CC(=O)N1CC(c2nc(-c3ccc(OC(F)(F)F)cc3)c3ncsc3n2)C1 [Compound 99, 1-(3-(7-(4-(Trifluoromethoxy)phenyl)thiazolo[5,4-d]pyrimidin-5-yl)azetidin-1-yl)prop-2-en-1-one]	4.3	3.1	2.7	3.7
C=CC(=O)NCc1cc(-c2ccc(OC(F)(F)F)cc2)c2ncsc2c1-c1noc(=O)[nH]1 [Compound 104, N-((7-(5-Oxo-4,5-dihydro-1,2,4-oxadiazol-3-yl)-4-(4-(trifluoromethoxy)phenyl)benzo[d]thiazol-6-yl)methyl)acrylamide]	80	27	40	95
C=CC(=O)NCc1cc(-c2ccc(OC(F)(F)F)cc2)c2ncoc2c1CO [Compound 113, N-((7-(Hydroxymethyl)-4-(4-(trifluoromethoxy)phenyl)benzo[d]oxazol-6-yl)methyl)acrylamide]	24	44	31	24
C=CC(=O)NCc1cc(-c2ccc(OC(F)(F)F)nc2)c2ncoc2c1CO [Compound 114, N-((7-(Hydroxymethyl)-4-(6-(trifluoromethoxy)pyridin-3-yl)benzo[d]oxazol-6-yl)methyl)acrylamide]	350	700	740	480
C=CC(=O)NC1CN(c2nc(-c3ccc(OC(F)(F)F)cc3)c3ncn(C)c3n2)C1 [Compound 127, N-(1-(9-Methyl-6-(4-(trifluoromethoxy)phenyl)-9H-purin-2-yl)azetidin-3-yl)acrylamide]	28	420	23	26
Cn1cnc2c(-c3ccc(OC(F)(F)F)cc3)nc(C3(C#N)CN(C(=O)/C=C/CO)C3)nc21 [Compound 128, (E)-1-(4-Hydroxybut-2-enoyl)-3-(9-methyl-6-(4-(trifluoromethoxy)phenyl)-9H-purin-2-yl)azetidine-3-carbonitrile]	21	9.9	2.7	11
C=CC(=O)NCc1nc(N2CCC(C(F)(F)F)CC2)c2ncn(C)c2n1 [Compound 130, N-((9-Methyl-6-(4-(trifluoromethyl)piperidin-1-yl)-9H-purin-2-yl)methyl)acrylamide]	1000	440	140	410
C=CC(=O)NCc1nc(N2CCC(OC(F)(F)F)CC2)c2ncn(C)c2n1 [Compound 131, N-((9-Methyl-6-(4-(trifluoromethoxy)piperidin-1-yl)-9H-purin-2-yl)methyl)acrylamide]	1600	1200	81	400

The remaining molecules from weak to strong by IC50 [1], led by results:

IC50 [1] [nM]	IC50 [2] [nM]	IC50 [3] [nM]	IC50 [4] [nM]	SMILES
1700	310	650	200	C=C(F)C(=O)N1CC(n2cc(-c3ccc(OC(F)(F)F)cc3)c3nccnc3c2=O)C1 [Compound 134, 6-(1-(2-Fluoroacryloyl)azetidin-3-yl)-8-(4-(trifluoromethoxy)phenyl)pyrido[3,4-b]pyrazin-5(6H)-one]
1100	1350	24.5	600	C=C1CCN(Cc2nc(-c3ccc(OC(F)(F)F)cc3)c3ncn(C)c3n2)C1=O [Compound 129, 1-((9-Methyl-6-(4-(trifluoromethoxy)phenyl)-9H-purin-2-yl)methyl)-3-methylenepyrrolidin-2-one]
540	1100	490	880	C#Cc1ccc(-c2cc(CNC(=O)C=C)c(CO)c3c2OCC3)cc1 [Compound 93, N-((7-(4-Ethynylphenyl)-4-(hydroxymethyl)-2,3-dihydrobenzofuran-5-yl)methyl)acrylamide]
360	420	28	52	C=CC(=O)NCc1nc(-c2ccc(OC(F)(F)F)cc2)nc2c1ncn2C [Compound 133, N-((9-Methyl-2-(4-(trifluoromethoxy)phenyl)-9H-purin-6-yl)methyl)acrylamide]
310	110	23	120	C=CC(=O)NCc1nc(C23CC(C(C)C)(C2)C3)c2ncsc2n1 [Compound 102, N-((7-(3-Isopropylbicyclo[1.1.1]pentan-1-yl)thiazolo[5,4-d]pyrimidin-5-yl)methyl)acrylamide]
150	100	24	6.9	C=C(F)C(=O)N1CC(c2nc(-c3ccc(OC(F)(F)F)cc3)c3ncn(C(F)F)c3n2)C1 [Compound 132, 1-(3-(9-(Difluoromethyl)-6-(4-(trifluoromethoxy)phenyl)-9H-purin-2-yl)azetidin-1-yl)-2-fluoroprop-2-en-1-one]
98	1600	15	58	C=C(NC(=O)c1cc(-c2ccc(OC(F)(F)F)cc2)c2ncn(C)c2c1)C(=O)OC [Compound 141, Methyl 2-(1-methyl-4-(4-(trifluoromethoxy)phenyl)-1H-benzo[d]imidazole-6-carboxamido)acrylate]
94	95	14	75	Cn1cnc2c(-c3ccc(OC(F)(F)F)cc3)cn(C3CN(C(=O)/C=C/CO)C3)c(=O)c21 [Compound 137, (E)-5-(1-(4-Hydroxybut-2-enoyl)azetidin-3-yl)-3-methyl-7-(4-(trifluoromethoxy)phenyl)-3,5-dihydro-4H-imidazo[4,5-c]pyridin-4-one]
47	3000	43	27	C=CC(=O)NCc1cc(-c2ccc(OC(F)(F)F)cc2)c2ncn(C)c2c1NCCO [Compound 140, N-((7-((2-Hydroxyethyl)amino)-1-methyl-4-(4-(trifluoromethoxy)phenyl)-1H-benzo[d]imidazol-6-yl)methyl)acrylamide]
38	230	32	120	O=C(C1=CCC1)N1CC(c2cc(-c3ccc(OC(F)(F)F)cc3)c3nccnc3c2[C@@H](O)CO)C1 [Compound 86, (R)-Cyclobut-1-en-1-yl(3-(5-(1,2-dihydroxyethyl)-8-(4-(trifluoromethoxy)phenyl)quinoxalin-6-yl)azetidin-1-yl)methanone]
30	47	12	18	C=C(F)C(=O)N1CC(n2cc(-c3ccc(OC(F)(F)F)cc3)c3ncn(C)c3c2=O)C1 [Compound 136, 5-(1-(2-Fluoroacryloyl)azetidin-3-yl)-3-methyl-7-(4-(trifluoromethoxy)phenyl)-3,5-dihydro-4H-imidazo[4,5-c]pyridin-4-one]
21	220	13	31	O=C(NCc1cc(-c2ccc(OC(F)(F)F)cc2)c2nccnc2c1[C@@H](O)CO)C1=CCC1 [Compound 81, (R)-N-((5-(1,2-Dihydroxyethyl)-8-(4-(trifluoromethoxy)phenyl)quinoxalin-6-yl)methyl)cyclobut-1-ene-1-carboxamide]
21	38.7	48	26.7	C=CC(=O)NCc1cc(-c2ccc(OC(F)(F)F)cc2)c2nccnc2c1CO [Compound 84, N-((5-(Hydroxymethyl)-8-(4-(trifluoromethoxy)phenyl)quinoxalin-6-yl)methyl)acrylamide]
16	140	11	50	O=C(C1=CCC1)N1CC(c2cc(-c3ccc(OC(F)(F)F)cc3)c3nccnc3c2[C@H](O)CO)C1 [Compound 87, (S)-Cyclobut-1-en-1-yl(3-(5-(1,2-dihydroxyethyl)-8-(4-(trifluoromethoxy)phenyl)quinoxalin-6-yl)azetidin-1-yl)methanone]
8.8	9.5	3.8	8.6	C=CC(=O)N(C)Cc1cc(-c2ccc(OC(F)(F)F)cc2)c2c(c1C#N)CCO2 [Compound 95, N-((4-cyano-7-(4-(trifluoromethoxy)phenyl)-2,3-dihydrobenzofuran-5-yl)methyl)-N-methylacrylamide]
